Assay results reported in patent US4350700A, “Pharmaceutical composition containing 1,3,5-substituted biuret compound” (Taiho Pharmaceutical Company, Limited, priority 1979, dated 1982).
Like-named read-outs stand apart in the source and are kept apart here.

How the values were obtained:
[1] = test system: carrageenin-induced inflammation of the hindpaw of the rat; test: Anti-inflammatory activity, acute carrageenin-induced inflammatory test; assay type: in vivo, rats (Wistar strain, male)
Description: (§1) Next, several tests for determining the pharmacological properties, in that acute toxicity, anti-pyretic activity, analgesic activity and anti-inflammatory activity of the present 1,3,5-substituted biuret compounds of the formula (1) were conducted and the test results are shown in Table (2). In the tests, each compounds to be tested was used as a suspension in 0.25% carboxymethylcellulose solution. Methods for testing are explained as follows:
4. Anti-inflammatory Activity
According to the method of acute carrageenin-induced inflammatory test [Folia Pharmacologia Japonica, Vol. 56, pp. 575 (1960)], the Wistar strain of male rats (body weight, 150-180 g) were used as test animals. The rats were fasted overnight, 100 mg/kg body weight of the test compound was administered orally, then 1 hour after the administration, 0.1 ml of 1% carrageenin solution, as the inflammation inducing agent, was injected subcutaneously to the hindpaw of the rat and the volume of the hindpaw was measured at time sequences. Anti-inflammatory activity of the test compound was calculated as inflammation inhibitory ratio (%) at 3 hours after the injection of inflammation inducing agent.

[2] = test system: pain reaction of the mouse caused by a clamp; test: Analgesic activity, Haffner method; assay type: in vivo, mice (ddy strain, male); conditions: mice
Description: as §1
According to the modified method reported by Fujimura et al., [Bulletin of the Institute for Chemical Research, Kyoto University, No. 25, pp. 36 (1951)], the ddy strain of male mice (body weight, 20-25 g) were used as test animals. The mice were fasted overnight, 100 mg/kg body weight of the test compound was administered orally, then 45 minutes after the administration, the threshhold amount (1.5-2.5 mg/kg body weight) of morphine hydrochloride was injected subcutaneously. Then 1-hour pain reaction of the mouse caused by a clamp was observed. Analgesic activity of the test compound was calculated as the inhibitory ratio (%). In Table 2, the values in parentheses show the data obtained from the test by using the dosage other than 100 mg/kg body weight. Further, the values indicated with Δ marks show 50% effective dose, ED50 (mg/kg body weight).

[3] = test system: acetic acid-induced stretching symptom of mouse; test: Analgesic activity, acetic acid-induced stretching method; assay type: in vivo, mice (ddy strain, male); conditions: read-out: Analgesic activity, acetic acid-induced stretching method, inhibitory ratio
Description: as §1
(1) Acetic acid-induced stretching method
According to the method reported by Koster et.al., [Fed. Proc., Vol. 18, pp. 412 (1959)], the ddy strain of male mice (body weight, 20-25 g) were used as test animals. The mice were fasted overnight, 100 mg/kg body weight of the test compound was administered orally, then 1 hour after the administration, 0.2 ml of 0.7% acetic acid solution was injected intraperitoneally. The acetic acid-induced stretching symptom of mouse was observed. Analgesic activity of the test compound was calculated as the inhibitory ratio (%). In Table 2, the values in parentheses show the data obtained from the test by using the dosage other than 100 mg/kg body weight. Further, the values indicated with Δ marks show 50% effective dose, ED50 (mg/kg body weight).

[4] = test system: 10% dry-yeast suspension-induced fever of rats; test: Anti-pyretic activity (dry-yeast induced fever, febril index); assay type: in vivo, rats (Wistar strain, male); conditions: oral, febril index up to 4 hours after administration, dose not stated
Description: as §1
According to the method reported by Tanabe [Folia Pharmacologia Japonica, Vol. 73, pp. 803 (1977)], the Wistar strain of male rats (150-180 g body weight) were used as test animals. The rats were fasted overnight, and 1 ml/100 g (body weight) of 10% dry-yeast suspension were subcutaneously injected on the back of the rats. Five hours afte the injection, the test compound was administered orally, then the body temperature of the rat was measured time sequences. Anti-pyretic activity of the test compound was determined as the FI (febril index) by integrating pyrogenetic curve up to 4 hours after the administration of the test compound with time, and indicated as inhibitory ratio (%) shown by the following formula, [formula]

[5] = test system: ddy strain of male mice; test: Acute toxicity (oral, general symptom and death observed for 7 days); assay type: in vivo; conditions: for Acute toxicity, death number of mice/number of mice tested: 7 days
Description: as §1
The ddy strain of male mice (body weight, 20-25 g) were used as test animals. The mice were fasted overnight and the compound to be tested was administered orally. […] The lethal dose (mg/kg, body weight) of the test compound was determined in connection with the death number of mice/the number of mice tested. In Table 2, the values indicated with Δ marks are 50% lethal dose, LD50 (mg/kg, body weight).

[6] = Rattus norvegicus, po, 3 h, read-out: Anti-inflammatory activity, inflammation inhibitory ratio

Row | Compound | inhibition in vivo at 100 mg/kg [1, 6] [%] | Analgesic activity, Haffner method, inhibitory ratio ([2]; 100 mg/kg oral) [%] | inhibition in vivo at 100 mg/kg ([3]; po) [%] | Anti-pyretic activity, inhibitory ratio [4] [%] | Acute toxicity, death number of mice/number of mice tested ([5]; 1000 mg/kg oral) | Acute toxicity, death number of mice/number of mice tested ([5]; 2000 mg/kg oral) | Anti-inflammatory activity, inflammation inhibitory ratio ([1]; 100 mg/kg oral, rats, 3 hours after carrageenin) [%] | Acute toxicity, 50% lethal dose LD50 ([5]; oral, 7 days observation (Δ values)) [mg/kg] | inhibition in vivo at 100 mg/kg ([1]; Rattus norvegicus, 100 mg/kg oral, rats, 3 hours after carrageenin, read-out: Anti-inflammatory activity, inflammation inhibitory ratio) [%] | inhibition in vivo at 200 mg/kg ([1]; Rattus norvegicus, 200 mg/kg oral, rats, 3 hours after carrageenin, read-out: Anti-inflammatory activity, inflammation inhibitory ratio) [%] | Analgesic activity, Haffner method, inhibitory ratio ([2]; 200 mg/kg oral) [%] | inhibition in vivo at 200 mg/kg ([3]; po) [%] | inhibition in vivo at 100 mg/kg ([3]; 100 mg/kg oral, mice) [%]
1 | CCNC(=O)N(C)C(=O)Nc1ccc(N(C)C)cc1 [compound 33, 1-Ethyl-3-methyl-5-(4-dimethylaminophenyl)biuret] | 30 | 25 | 62.5 | 87 | 0/4 | 4/4 |  |  |  |  |  |  | 
2 | 1,3-Dimethyl-5-(4-methyl-2-pyridyl)biuret [compound 18] |  | 25 |  | 60 |  |  | 20 | 1500 |  |  |  |  | 
3 | C=CCNC(=O)N(C)C(=O)Nc1ccccc1 [Compound No. 45] | 59 | 12.5 | 50 | 125 | 2/4 | 4/4 |  |  |  |  |  |  | 
4 | CNC(=O)N(C)C(=O)Nc1ccccc1F [Compound No. 4] |  | 25 | 37.5 | 79 |  | 0/4 |  |  | 41 |  |  |  | 
5 | CNC(=O)N(C)C(=O)Nc1ccccc1Cl [Compound No. 5, 1,3-Dimethyl-5-(2-chlorophenyl)biuret] |  |  |  | 28 |  | 0/4 |  |  |  | 53 | 37.5 | 37.5 | 
6 | CC(C)NC(=O)N(C)C(=O)Nc1ccccc1 [Compound No. 43, 1-Isopropyl-3-methyl-5-phenylbiuret] | 51 | 25 | 50 | 38 |  | 0/4 |  |  |  |  |  |  | 
7 | CNC(=O)N(C)C(=O)Nc1cc(C)ccn1 [compound 17] | 33 | 25 |  | 55 | 0/4 | 3/4 |  |  |  |  |  |  | 25
8 | CCCCCNC(=O)N(C)C(=O)Nc1ccccc1 [compound 52, 1-n-Pentyl-3-methyl-5-phenylbiuret] |  | 37.5 | 62.5 | 38 |  | 0/4 |  |  |  |  |  |  | 
9 | CCNC(=O)N(C)C(=O)Nc1ccc(C)c(C)c1 [compound 39, 1-Ethyl-3-methyl-5-(3,4-dimethylphenyl)biuret] |  | 37.5 | 50 | 8 |  | 0/4 |  |  |  |  |  |  | 
10 | CCNC(=O)N(C)C(=O)Nc1ccc(C)cc1 [compound 38, 1-Ethyl-3-methyl-5-(4-methylphenyl)biuret] |  | 25 |  | 80 | 0/4 | 3/4 |  |  |  |  |  |  | 87.5
